The values that follow come from US20060052600A1, “Amino-functional chalcones” (priority 2002, published 2006).

Values after ≈ are worked out from the molar mass of the structure shown. Some results are limits rather than exact numbers.

A short description of data set [1]: Determination of solubility. Particulars: 0.3 M phosphate buffer, 24 hours. The format is physicochemical. As to the method:
Solubility of the compounds was determined by preparing a saturated solution of compound in 0.3 M phosphate buffer (pH 7.4±0.3) in a brown glass tube. The suspensions were rotated slowly for 24 hours. Aliquots were centrifuged for 10 minutes at 14.000 rpm and supernatants were diluted in 40% (v/v) acetonitrile in water prior to HPLC analysis. Concentrations of analytes were quantified against a standard curve and used as term of solubility.
The HPLC-UV method used for the assessment of solubility is the same as used in the in vitro metabolism assay.

The nature of data set [2]: Determination of metabolic stability (liver microsomes). The format is in vitro ADME, rat. Particulars: for Metabolic turn-over (rat) in vitro: 20 μM, 15 min, 37° C. As to the method: Samples were incubated for 15 min at 37° C. and the reactions were terminated by addition of equal volumes of acetonitrile. Blank incubations were performed at the same concentration but without addition of microsomes. Both blank and microsome-containing samples were made in […] of three. […] The fraction of compound metabolised during the 15 min of incubation was determined by comparison of blank and microsome-containing samples using a Waters Alliance 2690 separation module and Waters 996 PDA-detector (Waters. […] This was followed by a 5 minutes linear gradient to initial conditions, which were maintained for 5 min. The flow rate was 0.20 ml/min and injection volume 10 μl.

The subject of data set [3] is DHODH (dihydroorotate dehydrogenase). Description: DHODH assay. Type of data set: biochemical. The following applies: test concentration not given.
For data set [4], the system named is Enterococcus faecalis ATCC29212. In words: MIC determination in broth microdilution assay.
For data set [5], the system named is Staphylococcus aureus ATCC29213. Description: MIC determination in broth microdilution assay. (In general: Broth dilution looks for growth in wells or tubes with falling amounts of substance.)
Data set [6] deals with panel of non-fastidious bacteria (Gram-positive pathogens and Eschericia coli). In words: Activity against non-fastidious bacteria (panel, results in words). Particulars: Gram-positive pathogens.
Data set [7] has as its system Enterococcus faecium #17501 (vancomycin-resistant clinical isolate). Description: MIC determination in broth microdilution assay.
In data set [8] the test system is Streptococcus pneumoniae #998 (clinical isolate). Description: MIC determination in broth microdilution assay.
For data set [9], the system named is Staphylococcus intermedius #2357 (clinical isolate). In words: MIC determination in broth microdilution assay.
The test system of the next data set is Eschericia coli ESS. In words: MIC determination in broth microdilution assay.
Data set [10] relates to Staphylococcus aureus ATCC33591 (resistant to methicillin). In words: MIC determination in broth microdilution assay.

As to `COc1ccc(C(=O)/C=C/c2ccc(CNCCN(C)C)cc2)cc1` [A005, (E)-3-{4-[(2-Dimethylamino-ethylamino)-methyl]-phenyl}-1-(4-methoxy-phenyl)-propenone], the “Solubility in aqueous buffer at pH 7.4” value in [1] was greater than 6 mg/ml.

Take `COc1ccc(C(=O)/C=C/c2cccc(CNCCN(C)C)c2)cc1` [A010, (E)-3-{3-[(2-Dimethylamino-ethylamino)-methyl]-phenyl}-1-(4-methoxy-phenyl)-propenone]: the “Metabolic turn-over (rat) in vitro” value in data set [2] came to 1%. For the same compound, in data set [1], the “Solubility in aqueous buffer at pH 7.4” value was 33.4 mg/ml.

As for `COc1ccc(C(=O)/C=C/c2cccc(CN3CCN(C)CC3)c2)cc1` [A013, (E)-1-(4-Methoxy-phenyl)-3-[3-(4-methyl-piperazin-1-ylmethyl)-phenyl]-propenone], the “Solubility in aqueous buffer at pH 7.4” value in data set [1] is on record as 31.2 mg/ml.

In the case of `CN(C)Cc1cccc(C(=O)/C=C/c2ccc(Cl)cc2Cl)c1` [A020, (E)-3-(2,4-Dichloro-phenyl)-1-(3-dimethylaminomethyl-phenyl)-propenone], the “Inhibition of DHODH” value in data set [3] is reported as 23%.

`CN1CCN(Cc2cccc(C(=O)/C=C/c3ccc(Cl)cc3Cl)c2)CC1` [A021, (E)-3-(2,4-Dichloro-phenyl)-1-[3-(4-methyl-piperazin-1-ylmethyl)-phenyl]-propenone]: the “Inhibition of DHODH” value in data set [3] turned out to be 27%.

`COc1ccc(OC)c(/C=C/C(=O)c2ccccc2CN(C)C)c1` [A029, (E)-3-(2,5-Dimethoxy-phenyl)-1-(2-dimethylaminomethyl-phenyl)-propenone]: in [2], the “Metabolic turn-over (rat) in vitro” value was found to be 3%.

`CCCCN(CCCC)c1ccc(/C=C/C(=O)c2ccccc2CN(C)C)cc1` [A030, (E)-3-(4-Dibutylamino-phenyl)-1-(2-dimethylaminomethyl-phenyl)-propenone]: the “MIC, D: Enterococcus faecalis ATCC29212” value in data set [4] was found to be 18.8 µM (≈ 7.38 µg/mL). In addition, the “MIC, A: Staphylococcus aureus ATCC29213” value in data set [5] came out at 9.4 µM (≈ 3.69 µg/mL). In [6], the “potency against Gram-positive pathogens in comparison with Licochalcone A” value (“potency against Gram-positive pathogens” for short) was “increased potency”. For the same compound, the “MIC, E: Enterococcus faecium #17501” value in data set [7] is 18.8 µM (≈ 7.38 µg/mL). The “MIC, F: Streptococcus pneumoniae #998” value in data set [8] was 18.8 µM (≈ 7.38 µg/mL). The “MIC, C: Staphylococcus intermedius #2357” value in [9] amounted to 9.4 µM (≈ 3.69 µg/mL). Also, in the data set with Eschericia coli ESS, the “MIC, H: Eschericia coli ESS” value amounted to 18.8 µM (≈ 7.38 µg/mL) and the “activity against the ESS strain of E. coli” value (“activity” below) was “considerable activity”. Moreover, in data set [10], the “MIC, B: Staphylococcus aureus ATCC33591” value is 9.4 µM (≈ 3.69 µg/mL).

For `CCCCN(CCCC)c1ccc(/C=C/C(=O)c2ccc(CN(C)C)cc2)cc1` [A033, (E)-3-(4-Dibutylamino-phenyl)-1-(4-dimethylaminomethyl-phenyl)-propenone], in [4], the “MIC, D: Enterococcus faecalis ATCC29212” value was 9.4 µM (≈ 3.69 µg/mL). Moreover, the “MIC, A: Staphylococcus aureus ATCC29213” value in data set [5] is 4.7 µM (≈ 1.85 µg/mL). Also, the “potency against Gram-positive pathogens” value in data set [6] is “increased potency”. Besides, the “MIC, E: Enterococcus faecium #17501” value in [7] turned out to be 9.4 µM (≈ 3.69 µg/mL). Besides, in data set [8], the “MIC, F: Streptococcus pneumoniae #998” value was 75.0 µM (≈ 29.4 µg/mL). For the same compound, in data set [9], the “MIC, C: Staphylococcus intermedius #2357” value was determined as 4.7 µM (≈ 1.85 µg/mL). Besides, the “MIC, H: Eschericia coli ESS” value against Eschericia coli ESS turned out to be 150.0 µM (≈ 58.9 µg/mL). The “MIC, B: Staphylococcus aureus ATCC33591” value in data set [10] came out at 9.4 µM (≈ 3.69 µg/mL).

Regarding `CCN(CC)Cc1ccccc1C(=O)/C=C/c1ccc(Cl)cc1Cl` [A045, (E)-3-(2,4-Dichloro-phenyl)-1-(2-diethylaminomethyl-phenyl)-propenone], in data set [3], the “Inhibition of DHODH” value worked out at 20%.

With `COc1ccc(OC)c(/C=C/C(=O)c2ccccc2CN2CCNCC2)c1` [A049, (E)-3-(2,5-Dimethoxy-phenyl)-1-(2-piperazin-1-ylmethyl-phenyl)-propenone], the “Metabolic turn-over (rat) in vitro” value in data set [2] is reported as 0%. In addition, the “Solubility in aqueous buffer at pH 7.4” value in data set [1] worked out at 6.3 mg/ml.

In the case of `COc1ccc(C(=O)/C=C/c2cccc(CN(C)CCN(C)C)c2)cc1` [A069, (E)-3-(3-{[(2-Dimethylamino-ethyl)-methyl-amino]-methyl}-phenyl)-1-(4-methoxy-phenyl)-propenone], the “Solubility in aqueous buffer at pH 7.4” value in data set [1] is reported as greater than 10 mg/ml.

Take `C=CC(C)(C)c1cc(/C=C/C(=O)c2ccccc2CN2CCN(C)CC2)c(OC)cc1Cl` [A083, (E)-3-[4-Chloro-5-(1,1-dimethyl-allyl)-2-methoxy-phenyl]-1-[2-(4-methyl-piperazin-1-ylmethyl)-phenyl]-propenone]: in data set [4], the “MIC, D: Enterococcus faecalis ATCC29212” value came to 18.8 µM (≈ 8.52 µg/mL). Moreover, the “MIC, A: Staphylococcus aureus ATCC29213” value in data set [5] amounted to 9.4 µM (≈ 4.26 µg/mL). For the same compound, the “potency against Gram-positive pathogens” value in [6] is “increased potency”. In addition, the “MIC, E: Enterococcus faecium #17501” value in [7] was found to be 9.4 µM (≈ 4.26 µg/mL). Further, the “MIC, F: Streptococcus pneumoniae #998” value in data set [8] amounted to 18.8 µM (≈ 8.52 µg/mL). The “MIC, C: Staphylococcus intermedius #2357” value in [9] stood at 18.8 µM (≈ 8.52 µg/mL). For the same compound, in the data set with Eschericia coli ESS, the “MIC, H: Eschericia coli ESS” value is 9.4 µM (≈ 4.26 µg/mL) and the “activity” value is recorded as “considerable activity”. For the same compound, the “MIC, B: Staphylococcus aureus ATCC33591” value in [10] was determined as 9.4 µM (≈ 4.26 µg/mL).

In the case of `CCCN(CCC)c1ccc(/C=C/C(=O)c2ccccc2CN(C)C)c(OCC)c1` [A084, (E)-1-(2-Dimethylaminomethyl-phenyl)-3-(4-dipropylamino-2-ethoxy-phenyl)-propenone], the “activity” value in the data set with Eschericia coli ESS is reported as “considerable activity”.

Consider `COc1ccc(C(=O)/C=C/c2ccc(OC)c(CN(C)C)c2)cc1` [A086, (E)-3-(3-Dimethylaminomethyl-4-methoxy-phenyl)-1-(4-methoxy-phenyl)-propenone], for which the “Solubility in aqueous buffer at pH 7.4” value in data set [1] amounted to 8.9 mg/ml.

Take `CNCc1cccc(/C=C/C(=O)c2ccc(OC)cc2)c1` [A099, (E)-1-(4-Methoxy-phenyl)-3-(3-methylaminomethyl-phenyl)-propenone]: in data set [2], the “Metabolic turn-over (rat) in vitro” value is 7%.

As for `COc1ccc(Nc2cccnc2)cc1/C=C/C(=O)c1ccccc1CN(C)C` [A102, (E)-1-(2-Dimethylaminomethyl-phenyl)-3-[2-methoxy-5-(pyridin-3-ylamino)-phenyl]-propenone], the “Metabolic turn-over (rat) in vitro” value in data set [2] turned out to be 2%. The “metabolism (turn-over), rat” value in data set [2] (rat) turned out to be 2%.

With `CCCCN(CCCC)c1ccc(/C=C/C(=O)c2ccc(OC)c(CN(C)C)c2)cc1` [A110, (E)-3-(4-Dibutylamino-phenyl)-1-(3-dimethylaminomethyl-4-methoxy-phenyl)-propenone], the “Metabolic turn-over (rat) in vitro” value in [2] turned out to be 6%.

For `CCCCN(CCCC)c1cccc(/C=C/C(=O)c2ccc(OC)c(CN(C)C)c2)c1` [A129, (E)-3-(3-Dibutylamino-phenyl)-1-(3-dimethylaminomethyl-4-methoxy-phenyl)-propenone], in [4], the “MIC, D: Enterococcus faecalis ATCC29212” value turned out to be 9.4 µM (≈ 3.97 µg/mL). For the same compound, the “MIC, A: Staphylococcus aureus ATCC29213” value in data set [5] stood at 4.7 µM (≈ 1.99 µg/mL). In data set [7], the “MIC, E: Enterococcus faecium #17501” value was 9.4 µM (≈ 3.97 µg/mL). For the same compound, the “MIC, F: Streptococcus pneumoniae #998” value in data set [8] amounted to 37.5 µM (≈ 15.8 µg/mL). In addition, the “MIC, C: Staphylococcus intermedius #2357” value in data set [9] amounted to 9.4 µM (≈ 3.97 µg/mL). Also, in the data set on Eschericia coli ESS, the “MIC, H: Eschericia coli ESS” value amounted to 9.4 µM (≈ 3.97 µg/mL). The “MIC, B: Staphylococcus aureus ATCC33591” value in data set [10] was determined as 9.4 µM (≈ 3.97 µg/mL).

With `C=CC(C)(C)c1cc(/C=C/C(=O)c2cccc(CN(C)C)c2)c(OC)cc1O` [A137, (E)-3-[5-(1,1-Dimethyl-allyl)-4-hydroxy-2-methoxy-phenyl]-1-(3-dimethylaminomethyl-phenyl)-propenone], the “MIC, D: Enterococcus faecalis ATCC29212” value in data set [4] was 9.4 µM (≈ 3.57 µg/mL). Also, the “MIC, A: Staphylococcus aureus ATCC29213” value in [5] is 4.7 µM (≈ 1.78 µg/mL). The “MIC, E: Enterococcus faecium #17501” value in data set [7] turned out to be 9.4 µM (≈ 3.57 µg/mL). In addition, the “MIC, F: Streptococcus pneumoniae #998” value in data set [8] was found to be 37.5 µM (≈ 14.2 µg/mL). The “MIC, C: Staphylococcus intermedius #2357” value in [9] was 9.4 µM (≈ 3.57 µg/mL). Also, in data set [10], the “MIC, B: Staphylococcus aureus ATCC33591” value worked out at 9.4 µM (≈ 3.57 µg/mL).
